From PubChem BioAssay (NCI)
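Where inhibition never reached the appropriate level, the endpoint shown equals the highest concentration tested. Otherwise, values were interpolated linearly from a five-concentration, 48-hour dose response in 96-well plates. GI50 marks 50% less growth. TGI marks complete inhibition of growth.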

Experiments:
Test in all cases: NCI anticancer screen, dose series, 48 h
HCT-116 colon = test system: HCT-116 colon
HL-60(TB) leukemia = test system: HL-60(TB) leukemia
HOP-92 NSCLC = test system: HOP-92 NSCLC
LOX IMVI melanoma = test system: LOX IMVI melanoma
NCI-H460 lung = test system: NCI-H460 lung
OVCAR-5 ovarian = test system: OVCAR-5 ovarian
OVCAR-8 ovarian = test system: OVCAR-8 ovarian
SF-268 CNS = test system: SF-268 CNS
SNB-75 CNS = test system: SNB-75 CNS
SW-620 colon = test system: SW-620 colon

| Compound | TGI (HCT-116 colon) [µM] | TGI (HL-60(TB) leukemia) [µM] | TGI (HOP-92 NSCLC) [µM] | TGI (LOX IMVI melanoma) [µM] | TGI (NCI-H460 lung) [µM] | TGI (OVCAR-5 ovarian) [µM] | TGI (OVCAR-8 ovarian) [µM] | TGI (SF-268 CNS) [µM] | TGI (SNB-75 CNS) [µM] | TGI (SW-620 colon) [µM] | GI50 (HCT-116 colon) [µM] | GI50 (HL-60(TB) leukemia) [µM] | GI50 (HOP-92 NSCLC) [µM] | GI50 (LOX IMVI melanoma) [µM] | GI50 (NCI-H460 lung) [µM] | GI50 (OVCAR-5 ovarian) [µM] | GI50 (OVCAR-8 ovarian) [µM] | GI50 (SF-268 CNS) [µM] | GI50 (SNB-75 CNS) [µM] | GI50 (SW-620 colon) [µM] |
| --- | --- | --- | --- | --- | --- | --- | --- | --- | --- | --- | --- | --- | --- | --- | --- | --- | --- | --- | --- | --- |
| O=c1oc2cc(O)ccc2c(O)c1C(c1ccccc1)c1c(O)c2ccc(O)cc2oc1=O | > 100 | > 100 | > 100 | > 100 | > 100 | > 100 | > 100 | > 100 | > 100 | > 100 |  |  |  |  |  |  |  |  |  |  |
| O=C1CC2(CCC(O)(c3ccc4ccccc4c3)C(C(=O)c3ccc4ccccc4c3)C2)C(=O)c2ccccc2N1 (stereo not given) | > 100 | > 100 | > 100 | > 100 | > 100 | > 100 | > 100 | > 100 | > 100 | > 100 |  |  |  |  |  |  |  |  |  |  |
| COc1cnc2c(c1)C(=O)c1c-2n(CCCN2CCOCC2)c(=O)c2cc(Cl)ccc12 | > 100 | > 100 | > 100 | 0.532 | > 100 | > 100 | > 100 | > 100 | 57.1 | > 100 | 0.167 | 0.455 | 32.7 | 0.152 | 0.0701 | > 100 | 0.578 | 0.288 | 15.1 | 0.232 |
| O=C1CCC(c2ccccc2)=NN1c1nsc2ccccc12 | > 100 | > 100 | > 100 | > 100 | > 100 | > 100 | > 100 | > 100 | > 100 | > 100 |  |  |  |  |  |  |  |  |  |  |
| Nc1ncc(-c2ccc3ncnc(Nc4ccc(F)c(Cl)c4)c3c2)cn1 | 3.73 | 29.7 | 3.52 | 10.7 | 2.96 | 3.69 | 17.5 | 68.5 | 2.43 | 11.7 | 1.89 | 10.6 | 1.03 | 2.35 | 1.44 | 1.02 | 2.96 | 2.48 | 0.544 | 3.02 |
| O=C(O)C(Cl)(Cl)Cl | > 100 | > 100 | > 100 | > 100 | > 100 | > 100 | > 100 | > 100 | > 100 | > 100 |  |  |  |  |  |  |  |  |  |  |
